Assay results as given in ChEMBL document CHEMBL4616693, “Identification of Inhibitors of Thrombospondin 1 Activation of TGF-β” (ACS Med Chem Lett, 2020).
Peptide text beside a SMILES is read from it.

Tests used:
[1] = biological target: T1, Thrombospondin-1 (Homo sapiens, UniProt P07996); test: Inhibition of TSP1 in human myeloma cells assessed reduction in TGFbeta activity incubated for 1 hr by ELISA; format: cell-based
Target sequence in this assay (P07996 whole entry): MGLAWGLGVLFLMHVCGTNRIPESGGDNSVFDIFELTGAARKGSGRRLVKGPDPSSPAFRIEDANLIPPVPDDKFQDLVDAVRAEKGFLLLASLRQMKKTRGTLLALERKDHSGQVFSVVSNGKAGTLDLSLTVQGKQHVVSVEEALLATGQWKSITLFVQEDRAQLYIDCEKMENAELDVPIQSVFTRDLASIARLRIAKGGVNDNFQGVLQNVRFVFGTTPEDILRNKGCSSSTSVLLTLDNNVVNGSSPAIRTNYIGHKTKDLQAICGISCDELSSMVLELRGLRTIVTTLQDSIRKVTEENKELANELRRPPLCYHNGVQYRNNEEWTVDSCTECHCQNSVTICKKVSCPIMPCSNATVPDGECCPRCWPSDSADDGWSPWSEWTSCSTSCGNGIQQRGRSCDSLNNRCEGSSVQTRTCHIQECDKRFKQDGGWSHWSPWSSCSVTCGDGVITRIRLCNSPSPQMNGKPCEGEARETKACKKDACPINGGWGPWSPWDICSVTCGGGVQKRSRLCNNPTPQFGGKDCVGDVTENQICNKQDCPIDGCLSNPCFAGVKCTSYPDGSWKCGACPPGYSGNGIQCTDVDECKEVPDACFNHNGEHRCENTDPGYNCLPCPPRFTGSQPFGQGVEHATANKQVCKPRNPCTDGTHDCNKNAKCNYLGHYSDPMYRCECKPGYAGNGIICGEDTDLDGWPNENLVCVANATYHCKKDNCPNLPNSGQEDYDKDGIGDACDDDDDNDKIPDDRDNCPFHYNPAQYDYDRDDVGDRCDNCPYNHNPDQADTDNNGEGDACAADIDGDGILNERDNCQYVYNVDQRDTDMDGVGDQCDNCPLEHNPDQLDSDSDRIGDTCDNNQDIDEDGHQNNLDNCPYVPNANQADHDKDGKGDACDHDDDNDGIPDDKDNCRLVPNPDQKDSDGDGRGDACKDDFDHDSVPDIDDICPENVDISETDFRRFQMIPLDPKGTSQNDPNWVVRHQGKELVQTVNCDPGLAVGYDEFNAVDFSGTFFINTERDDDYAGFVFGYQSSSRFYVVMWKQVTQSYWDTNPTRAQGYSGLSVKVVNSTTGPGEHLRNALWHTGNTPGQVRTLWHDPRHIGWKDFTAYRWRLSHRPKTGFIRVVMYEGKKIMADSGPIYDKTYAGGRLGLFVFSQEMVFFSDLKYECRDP

[2] = Microsomal stability in rat liver microsomes assessed as half life measured after 45 mins in presence of NADPH by LC-MS/MS analysis; format: ADME, Microsome
[3] = Microsomal stability in human liver microsomes assessed as half life measured after 45 mins in presence of NADPH by LC-MS/MS analysis; format: ADME, Microsome
[4] = Half life in CD1 mouse at 1 mg/kg, iv by LC-MS/MS analysis; format: ADME, organism-based; details: in vivo
[5] = Half life in ip dosed CD1 mouse by LC-MS/MS analysis; format: ADME, organism-based; details: in vivo
[6] = Cmax in ip dosed CD1 mouse measured after 0.25 hrs by LC-MS/MS analysis; format: ADME, organism-based; design: route intraperitoneal; details: in vivo
[7] = Plasma concentration in CD1 mouse at 1 mg/kg, iv or 5 mg/kg, po measured after 1 hr by LC-MS/MS analysis; format: ADME, organism-based
[8] = Plasma concentration in CD1 mouse at 1 mg/kg, iv or 5 mg/kg, po measured after 2 hrs by LC-MS/MS analysis; format: ADME, organism-based
[9] = Oral bioavailability in CD1 mouse at 5 mg/kg by LC-MS/MS analysis; format: ADME, organism-based; details: in vivo
[10] = biological target: T1, Thrombospondin-1; test: Inhibition of recombinant human TSP1 P123 expressed in baculovirus system binding to recombinant human LAP at 10 nM preincubated for 10 mins followed by recombinant human LAP addition and measured after 2 hrs by ELISA relative to control
Target sequence in this assay (P07996 19-1170 limits assumed): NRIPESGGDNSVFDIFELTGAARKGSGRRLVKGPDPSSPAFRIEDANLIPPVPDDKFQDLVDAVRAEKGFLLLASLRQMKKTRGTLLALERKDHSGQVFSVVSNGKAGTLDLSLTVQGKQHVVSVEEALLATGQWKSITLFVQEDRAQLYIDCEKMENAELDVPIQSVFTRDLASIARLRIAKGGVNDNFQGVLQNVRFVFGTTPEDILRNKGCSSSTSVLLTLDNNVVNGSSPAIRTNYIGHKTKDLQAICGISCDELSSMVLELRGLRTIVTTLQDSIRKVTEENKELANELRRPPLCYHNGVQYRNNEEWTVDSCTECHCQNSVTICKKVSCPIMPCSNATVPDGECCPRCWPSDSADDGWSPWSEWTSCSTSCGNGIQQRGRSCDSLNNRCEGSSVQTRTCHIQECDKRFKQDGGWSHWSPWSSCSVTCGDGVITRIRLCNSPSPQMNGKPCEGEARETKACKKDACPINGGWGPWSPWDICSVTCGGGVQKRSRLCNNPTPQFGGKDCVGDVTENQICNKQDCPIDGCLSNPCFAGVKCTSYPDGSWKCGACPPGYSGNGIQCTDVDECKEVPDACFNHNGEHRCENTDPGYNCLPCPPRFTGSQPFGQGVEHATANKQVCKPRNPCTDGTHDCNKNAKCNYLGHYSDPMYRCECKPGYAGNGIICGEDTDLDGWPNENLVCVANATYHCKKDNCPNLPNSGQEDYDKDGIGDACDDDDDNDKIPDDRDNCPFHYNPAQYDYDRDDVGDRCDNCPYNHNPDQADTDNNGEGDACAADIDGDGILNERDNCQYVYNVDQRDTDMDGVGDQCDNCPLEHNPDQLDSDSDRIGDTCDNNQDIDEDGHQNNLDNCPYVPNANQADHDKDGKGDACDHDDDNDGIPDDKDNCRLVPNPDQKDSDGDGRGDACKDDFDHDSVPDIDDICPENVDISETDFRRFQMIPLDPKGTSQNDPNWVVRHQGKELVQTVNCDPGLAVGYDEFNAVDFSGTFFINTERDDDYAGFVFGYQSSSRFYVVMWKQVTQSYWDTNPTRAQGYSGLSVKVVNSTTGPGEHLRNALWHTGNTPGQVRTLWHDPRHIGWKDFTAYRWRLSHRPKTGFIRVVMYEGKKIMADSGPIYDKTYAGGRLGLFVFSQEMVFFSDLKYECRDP

SMILES | IC50 [1] [nM] | also measured
CNC(=O)[C@H](CC(C)C)NC(=O)[C@@H](CCCCN)NC(=O)[C@@H](NC(C)=O)[C@@H](C)O | 2.88 | 
CC(=O)N[C@@H](CCCN)C(=O)NC(C)(C)C(N)=O | 7.59 | half-life [2]: 2.83 h; half-life [3]: > 5 h; half-life [4]: 0.2 h; half-life [5]: 7 h; Cmax [6]: 19400 ng/mL; concentration at 1 h [7]: 11.6 µM; concentration at 2 h [8]: 2.1 µM; bioavailability [9]: 9%; inhibition [10]: 85%
CC(=O)N[C@@H](CC(N)=O)C(=O)N[C@@H](CCCCN)C(=O)N[C@@H](CC(C)C)C(N)=O (Ac-Asn-Lys-Leu-NH2) | 9.55 | 
CC(=O)NCC(=O)N[C@@H](CCCCN)C(=O)N[C@@H](CC(C)C)C(N)=O (Ac-Gly-Lys-Leu-NH2) | 14.1 | 
CC(=O)NCCCC[C@H](NC(=O)[C@H](CO)NC(C)=O)C(=O)N[C@@H](CC(C)C)C(N)=O (Ac-Ser-Lys(Ac)-Leu-NH2) | 15.1 | 
CC(=O)N[C@@H](CO)C(=O)N[C@@H](CCCCN)C(=O)N[C@@H](CC(C)C)C(N)=O (Ac-Ser-Lys-Leu-NH2) | 5.25 | half-life [4]: 1.9 h; inhibition [10]: 85%
CCC(=O)N[C@@H](CO)C(=O)N[C@@H](CCCCN)C(=O)N[C@@H](CC(C)C)C(N)=O (HELM PEPTIDE1{[CCC(=O)[*:2]].S.K.L.[am]}$$$$V2.0) | 13.5 | 
CC(=O)N[C@@H](CO)C(=O)N[C@@H](CCCCN)C(=O)N[C@@H](CC(C)C)C(=O)N(C)C (HELM PEPTIDE1{[ac].S.K.L.[CN(C)[*:1]]}$$$$V2.0) | 3.31 | 
CNCCCC[C@H](NC(=O)[C@H](CO)NC(C)=O)C(=O)N[C@@H](CC(C)C)C(N)=O (HELM PEPTIDE1{[ac].S.[CNCCCC[C@H](N[*:1])C(=O)[*:2]].L.[am]}$$$$V2.0) | 4.37 | 
CC(=O)N[C@@H](CO)C(=O)N[C@@H](CCCN)C(=O)NC(C)(C)C(N)=O (HELM PEPTIDE1{[ac].S.[Orn].[Aib].[am]}$$$$V2.0) |  | inhibition [10]: 34%

More lines, main results first:

IC50 [1] [nM] | SMILES | also measured
2 | CC(=O)N[C@@H](CO)C(=O)N[C@@H](CCCCN)C(=O)N[C@H](CC(C)C)C(N)=O (HELM PEPTIDE1{[ac].S.K.[dL].[am]}$$$$V2.0) | 
2.24 | CC(=O)N[C@@H](CO)C(=O)N[C@@H](CCCCN)C(=O)N(C)[C@@H](CC(C)C)C(N)=O (HELM PEPTIDE1{[ac].S.K.[meL].[am]}$$$$V2.0) | 
1.51 | CC(=O)N[C@@H](CO)C(=O)N[C@@H](CCCCN(C)C)C(=O)N[C@@H](CC(C)C)C(N)=O (HELM PEPTIDE1{[ac].S.[CN(C)CCCC[C@H](N[*:1])C(=O)[*:2]].L.[am]}$$$$V2.0) | 
1.7 | CC(=O)N[C@@H](CO)C(=O)N[C@H](CCCCN)C(=O)N[C@@H](CC(C)C)C(N)=O (HELM PEPTIDE1{[ac].S.[dK].L.[am]}$$$$V2.0) | 
0.38 | CC(=O)N[C@H](CO)C(=O)N[C@@H](CCCCN)C(=O)N[C@@H](CC(C)C)C(N)=O (HELM PEPTIDE1{[ac].[dS].K.L.[am]}$$$$V2.0) | 
